Reference: patent publication US20080207671A1, “Diagnosis and treatment of diseases arising from defects in the tuberous sclerosis pathway” (The Regents of the University of Michigan, priority 2006, published 2008)
Entries after “also recorded” stand apart in the source; their conditions may differ.

Experiments:
[1] = target: TSC2 fragment containing S1345 (UniProt P49816)
[2] = target: TSC2-F2 fragment (UniProt P49816)
[3] = tested on: AMPK; settings: Corton et al.; cited from earlier work
[4] = tested on: eukaryotic elongation factor 2 (eEF2); settings: Horman et al.; cited from earlier work
[5] = tested on: S6K and 4EBP1; settings: Kimura et al.; Krause et al.; cited from earlier work
[6] = tested on: LEF (TSC2−/− epithelial) cells; test: Cell death / apoptosis of LEF cells (vector, TSC2, TSC2-3A); type: cell-based; settings: vector and wild type TSC2 expressing LEF cells
Experimental: FIGS. 16a-16f show TSC2 plays roles in protecting cells from glucose depletion-induced apoptosis. […] LEF cells stably expressing vector, TSC2, or TSC2-3A were cultured in 25 mM glucose (G+) or glucose free medium (G−) with or without 20 nM rapamycin. Pictures were taken at 72 hours in culture. Note that the TSC2 wild type expressing cells are morphologically smaller. […] LEF cells stably expressing vector, TSC2 or TSC2-3A were cultured in glucose free medium with or without 20 nM rapamycin for 48 hours. Western blots with anti-cleaved-caspase-3 and actin are shown. […] EEF cells were cultured in glucose free medium with or without 20 nM rapamycin for 96 hours. […] The EEF4 and EEF8 cells were cultured in glucose free medium with or without 20 nM rapamycin for 72 hours. Western blots with cleaved-caspase-3 and actin are shown. […] The MEFs were cultured in glucose free medium for 48 hours. […] MEFs were cultured in glucose free medium with or without 20 nM rapamycin for 16 hours. Western blots with cleaved-caspase-3 and actin are shown.

[7] = target: GST-TSC2 fragment 1 (amino acids 910-1112) (UniProt P49816)
[8] = target: GST-TSC2 fragment 2 (amino acids 1357-1765) (UniProt P49816)
[9] = tested on: phosphorylation of S6K, S6, 4EBP1 and mTOR; test: Immunoblot of S6K, S6, 4EBP1 and mTOR phosphorylation in HEK293 cells under energy depletion; type: cell-based, human; settings: for phosphorylation of S6K and 4EBP1: depletion of cellular ATP
Experimental: (§1) HEK293 cells were seeded and maintained in Dulbecco's modified Eagle's medium (DMEM) containing 10% fetal bovine serum (FBS). Transfection was performed in serum-free conditions using Lipofectamine reagent (Invitrogen, Carlsbad, Calif.) in accordance with the manufacturer's instructions. In brief, 4 h after transfection, the cells were recovered in DMEM containing 10% FBS for 16 h and then starved for 16-24 h. Cells were then lysed in lysis buffer (10 mM Tris-HCl at pH 7.5, 100 mM sodium chloride, 1% NP-40, 1% Triton X-100, 50 mM sodium fluoride, 2 mM EDTA, 1 mM phenyl methylsulphonyl fluoride, 10 μg ml^−1 leupeptin and 10 μg ml^−1 aprotinine) and immunoprecipitated with the indicated antibodies and protein G-Sepharose beads. Immunocomplexes were analyzed by SDS-polyacrylamide gel electrophoresis (PAGE).

[10] = tested on: TSC2; test: TSC2/TSC1 phosphorylation in transfected HEK293 cells (mobility shift, 32P labelling, two-dimensional phosphopeptide mapping); type: cell-based, human; settings: 10 μM, added 30 minutes before 2-DG, HEK293
Experimental: as §1
HEK293 cells were cotransfected with HA-tagged TSC2, Myc-tagged TSC1 and the indicated plasmids. Cells were phosphate- and serum-starved for 4 h before incubation with 0.25 mCi ml^−1 32P-orthophosphate (ICN) for 4 h.
Cells were washed once with ice-cold PBS and lysed. HA-tagged TSC2 was immunoprecipitated, resolved by SDS-PAGE and transferred to a PVDF membrane. Phosphorylated TSC2 was visualized by autoradiography and phosphopeptide mapping was then performed. In brief, the phosphorylated TSC2 bands were excised, fixed in methanol and incubated in 500 μl of 0.5% polyvinylpyrrolidone-40 dissolved in 100 mM acetic acid for 30 min at 37° C. The sample were then digested with 20 μg of TPCK-treated trypsin (Sigma) at 37° C. in 75 mM ammonium bicarbonate buffer at pH 8.0 containing 5% acetonitrile. After digestion, samples were dried under vacuum and suspended in 10 μl of water. Samples were spotted onto a cellulose plate and first dimensional electrophoresis was performed using 1% ammonium bicarbonate buffer at pH 8.9. The plates were separated by chromatography in the second dimension in chromatography buffer (n-butanol:pyridine:acetic acid:water; 20:24:6:30). The plates were dried and phosphopeptides were visualized by autoradiography.

[11] = tested on: Akt phosphorylation; test: Immunoblot of Akt phosphorylation in HEK293 cells; type: cell-based, human; settings: AMPK inhibitor treatment
Experimental: as §1

[12] = tested on: EEF4 (TSC2+/+) cells; test: S6K and 4EBP1 phosphorylation in EEF4 (TSC2+/+) fibroblasts; type: cell-based
[13] = tested on: S6K-dC104; test: Phosphorylation and kinase activity of rapamycin-resistant S6K mutants (S6K-dC104, S6K-dNC); type: cell-based
Experimental: as §1
For the S6K assays, HEK293 cells grown in six-well plates were transfected with 10-20 ng HA-S6K constructs, with or without various plasmids, as indicated in the figures. HA-S6K was immunoprecipitated from serum-starved cells with an anti-HA antibody and analyzed by in vitro kinase assay using purified GST-S6 as a substrate (Pearson et al., EMBO J. 14:5279-5287 (1995)).

[14] = tested on: db/db mice; type: in vivo; settings: 16 weeks treatment
Experimental: m+/+ Lepr db (db/+) mice were obtained from The Charles River Japan and mated, +Lepr db/+ Lepr db mice (db/db) mice were generated.
Mice were randomly divided into four groups as follows: nondiabetic db/+; nondiabetic db/+ treated with Rapamycin; diabetic db/db: and diabetic db/db treated with Rapamycin (2.0 mg/kg body weight, 3 days/week). Rapamycin was injected intraperitoneally (i.p.) from the age of 8 weeks to 25 weeks or 16 weeks to 25 weeks. Blood glucose levels and body weight were determined weekly in all animals. Mice were housed in a 12 hr light/dark cycle and temperature-controlled environment. […]
At age 25 weeks, kidney was isolated from db/db and db/+ mice (n=10 for each group), and total RNA was purified. The expression of fibronectin and α3-type IV collagen mRNA by real-time reverse transcriptase-polymerase chain reaction (RT-PCR), which was performed in an ABI 7700 sequence detector (Applied Biosystems), was quantified. […] For quantitative RT-PCR of UCP-1, BAT (brown adipose tissue) was isolated from 2 weeks rapamycin treated or untreated mice, primers used were described previously (see, e.g., Um S H, et al., Nature 431, 200-205, 2004; herein incorporated by reference in its entirety). Data were normalized to GAPDH and analyzed by the comparative threshold cycle method. […]
Data were expressed as the means±SEM. […]

[15] = tested on: db/db mice; test: Diabetic nephropathy in db/db mice: glomerular morphometry, gene expression, urinary albumin; type: in vivo; settings: rapamycin for 8 weeks from 16 weeks of age
Experimental: Mice were randomly divided into four groups as follows: nondiabetic db/+; nondiabetic db/+ treated with Rapamycin; diabetic db/db: and diabetic db/db treated with Rapamycin (2.0 mg/kg body weight, 3 days/week). Rapamycin was injected intraperitoneally (i.p.) from the age of 8 weeks to 25 weeks or 16 weeks to 25 weeks. Blood glucose levels and body weight were determined weekly in all animals. Mice were housed in a 12 hr light/dark cycle and temperature-controlled environment. Animal care and all experiments were conducted in accordance with the institutional guidelines of the Kyushu University Graduate School of Medicine.
Seventeen weeks after treatment with rapamycin (25 week of age), mice were deeply anesthetized, after perfusion with ice-cold PBS, the kidneys were perfused with 4% paraformaldehyde. […] To quantify mesangial expansion, sections were coded and read. […] The extent of increase in mesangial matrix (defined as mesangial area) was determined by the presence of PAS-positive and nuclei-free area in the mesangium; the glomerular surface area has been measured using standard measurements of glomerular tuft areas using a the computer program of Axiovision Auto Mesure.
At age 25 weeks, kidney was isolated from db/db and db/+ mice (n=10 for each group), and total RNA was purified. […] Data were normalized to GAPDH and analyzed by the comparative threshold cycle method. […]

**Q.** Which “in vitro phosphorylation by immunoprecipitated AMPK” value [1] does the source give for “immunoprecipitated AMPK (in vitro kinase assay)” here?
**A.** Its value is “The TSC2 fragment was phosphorylated by immunoprecipitated AMPK, but not the kinase inactive AMPK mutant”.

**Q.** What about the “in vitro phosphorylation by immunoprecipitated AMPK” value [2] of the same molecule?
**A.** The value was “In vitro phosphorylation of the purified TSC2-F2 fragment by immunoprecipitated AMPK showed that AMPK specifically phosphorylates TSC2 on T1227”.

**Q.** For NC(=O)c1ncn([C@@H]2O[C@H](COP(=O)(O)O)[C@@H](O)[C@H]2O)c1N [AICAR, 5-aminoimidazole-4-carboxyamide ribonucleotide], which AMPK activation [3] is on record?
**A.** Its AMPK activation is “activate AMPK”.

**Q.** What about the “phosphorylation of eEF2” value [4] of the same molecule?
**A.** Its value is “increase phosphorylation”.

**Q.** What about the S6K activity [5] of the same molecule?
**A.** The S6K activity was “inhibit S6K activity”.

**Q.** For COc1cc([C@@H]2c3cc4c(cc3[C@@H](O[C@@H]3O[C@@H]5CO[C@@H](C)O[C@H]5[C@H](O)[C@H]3O)[C@H]3COC(=O)[C@H]23)OCO4)cc(OC)c1O [Etoposide], which cell death [6] is on record?
**A.** The cell death was “caused cell death in both vector and wild type TSC2 expressing cells”.

**Q.** For GST-Akt, which “in vitro phosphorylation by purified Akt” value [7] is on record?
**A.** The value was “Wild-type Akt, but not the kinase-inactive Akt-KM mutant, efficiently phosphorylated both fragment 1 and fragment 2 of TSC2 in vitro”.

**Q.** And the “in vitro phosphorylation by purified Akt” value [8]?
**A.** Its value is “Wild-type Akt, but not the kinase-inactive Akt-KM mutant, efficiently phosphorylated both fragment 1 and fragment 2 of TSC2 in vitro”.

**Q.** For OC[C@@H](O)[C@@H](O)[C@H](O)[C@H](O)CO [mannitol], which “phosphorylation of S6K on T389” value ([9]; 25 mM) is on record?
**A.** The value was “had little effect”.

**Q.** And the “phosphorylation of S6K” value ([9]; 100 mM)?
**A.** The value was “significantly inhibited”.

**Q.** For c1cc(-c2cnn3cc(-c4ccc(OCCN5CCCCC5)cc4)cnc23)ccn1 [Compound C], which “mobility of TSC2 / 2-DG induced mobility shift” value [10] is on record?
**A.** Its value is “blocks the 2-DG induced mobility shift of TSC2”.

**Q.** What about the “mobility of TSC2 / 2-DG induced mobility shift” value ([10]; listed as compound C) of the same molecule?
**A.** Its value is “increased the mobility of TSC2”.

**Q.** What about the “effect on 2-DG induced dephosphorylation of S6K” value ([9]; HEK 293, with 2-DG, listed as AMPK inhibitor) of the same molecule?
**A.** The value was “significantly reversed the inhibitory effect of 2-DG on S6K phosphorylation; also recorded: blocks the 2-DG induced dephosphorylation of S6K”.

**Q.** What about the “S6K dephosphorylation induced by glucose deprivation” value ([9]; glucose deprivation, listed as AMPK inhibitor) of the same molecule?
**A.** The value was “significantly blocked; also recorded: partially blocks”.

**Q.** What about the Akt phosphorylation [11] of the same molecule?
**A.** Its Akt phosphorylation is “had no effect”.

**Q.** For CC(=O)c1c(O)c(C)c(O)c(Cc2c(O)c3c(c(C(=O)/C=C/c4ccccc4)c2O)OC(C)(C)C=C3)c1O [Rottlerin], which “phosphorylation of S6K and 4EBP1” value [9] is on record?
**A.** Its value is “caused a dephosphorylation of S6K and 4EBP1”.

**Q.** And the S6K phosphorylation [12]?
**A.** The S6K phosphorylation was “caused a decrease in S6K phosphorylation”.

**Q.** For N#CC(C#N)=NNc1ccc(OC(F)(F)F)cc1 [FCCP], which “phosphorylation of S6K and 4EBP1” value [9] is on record?
**A.** The value was “caused a dephosphorylation of S6K and 4EBP1”.

**Q.** And the S6K phosphorylation [12]?
**A.** Its S6K phosphorylation is “caused a decrease in S6K phosphorylation”.

**Q.** For CO[C@H]1C[C@@H]2CC[C@@H](C)[C@@](O)(O2)C(=O)C(=O)N2CCCC[C@H]2C(=O)O[C@H]([C@H](C)C[C@@H]2CC[C@@H](O)[C@H](OC)C2)CC(=O)[C@H](C)/C=C(\C)[C@@H](O)[C@@H](OC)C(=O)[C@H](C)C[C@H](C)/C=C/C=C/C=C/1C [rapamycin], which “phosphorylation of Thr 389 in S6K-dC104” value [13] is on record?
**A.** Its value is “not inhibited”.

**Q.** What about the “increase in oxygen consumption versus db/db untreated mice” value [14] of the same molecule?
**A.** The value was 3.27 folds.

**Q.** And the “amount of albumin excreted relative to the starting point (16w; db/db)” value [15]?
**A.** The value was 60%.
